How the values were obtained:
[1] = Microsomal stability, human; assay type: in vitro ADME; conditions: human microsomes
Experimental: Microsomal stability for Compound AA and Compound BB was investigated. The following table indicates the percent of Compound AA and Compound BB remaining after 60 minutes.

[2] = Plasma stability, human; assay type: in vitro ADME
Experimental: (§1) Plasma stability for Compound AA and Compound BB was investigated. The following table indicates the percent of Compound AA and Compound BB remaining after 60 minutes.

[3] = Plasma stability, rat; assay type: in vitro ADME
Experimental: as §1

[4] = target: NR2B (Homo sapiens, UniProt Q13224); test: Potentiation of [3H]MK-801 binding, wild-type NMDAR2B; parameters: species or system rat
Experimental: Assays were conducted as described by Moskal et al., “GLYX-13: a monoclonal antibody-derived peptide that acts as an N-methyl-D-aspartate receptor modulator,” Neuropharmacology, 49, 1077-87, 2005. The potentiation of [^3H]MK-801 binding (5 nM; 22.5 Ci/mmol) to well washed rat cortical membranes (200 μg) was measured under non-equilibrium conditions (15 min @ 25° C.) in the presence of increasing concentrations of Compound AA or Compound BB.
FIG. 2A depicts the potentiation of [^3H]MK-801 binding for wild-type NMDAR2 subtypes in the presence of Compound AA. FIG. 2B depicts the potentiation of [^3H]MK-801 binding for wild-type NMDAR2 subtypes in the presence of Compound BB. The following table depicts the results (P means potency and A means activity): […]

[5] = tested on: Sprague Dawley rats; test: Bennett model of mechanical analgesia (paw withdrawal threshold); assay type: in vivo, rat; conditions: 0.1-10 mg/kg PO; tested 1 h, 24 hrs and 1 week post-dosing
Experimental: Bennett G J, Xie Y K, “A peripheral mononeuropathy in rat that produces disorders of pain sensation like those seen in man,” Pain 33:87-107, 1988. […] Vehicle animals receive the surgery and then receive vehicle rather than test compound. Animals were tested 1 hr, 24 h and 1 wk post-test compound or vehicle administration.
Male 2-3 month old Sprague Dawley rats were used. Harlan was the supplier for all studies. Rats were housed in Lucite cages with aspen wood chip bedding, maintained on a 12:12 light:dark cycle (lights on at 5 AM), and given ad libitum access to Purina lab chow (USA) and tap water throughout the study.
Rats were anesthetized using inhaled isoflurane (2.5%). Spared nerve injury surgery was performed as previously described (Bennett and Xie, 1988). An incision (˜1.5 cm in length) was made with a scalpel blade dorsally through skin on the right hindlimb, parallel and posterior to femur. Using a small pointed hemostat, the biceps femoris and gluteus superficialis muscles were separated. Using curved blunt forceps, the common sciatic nerve was isolated and exposed. For the mechanical analgesia studies, the whole sciatic nerve was ligated. Using hemostats/forceps and chromic gut (5-0), the nerve was loosely ligated with a square knot; 3 ligatures, 1 mm apart were placed on the nerve. […]

[6] = tested on: rat Schaffer collateral-evoked NMDA fEPSPs recorded in CA1 pyramidal neurons; test: Long-term potentiation in hippocampal slices; assay type: cell-based; conditions: bath application 100 nm, 500 nm, 2 μM
Experimental: Assays were conducted as described in Zhang et al. (Zhang, X. L., Sullivan, J. A., Moskal., J. R., Stanton, P. K., 2008. A NMDA receptor glycine site partial agonist, GLYX-13, simultaneously enhances LTP and reduces LTD at Schaffer collateral-CA1 synapses in hippocampus. Neuropharmacology, 55, 1238-50). See also Burgdorf, J, Zhang X L, Nicholson K L, Balster R L, Leander J D, Stanton P K, Gross A L, Kroes R A, Moskal J R (2013), GLYX-13, a NMDA receptor glycine-site functional partial agonist, induces antidepressant-like effects without ketamine-like side effects, Neuropsychopharmacology: official publication of the American College of Neuropsychopharmacology 38:729-742. […] A bipolar tungsten ystimulating electrode (FHC Co.) was placed on Schaffer collateral-commissural fibers in CA3 stratum radiatum, and constant current stimulus intensity adjusted to evoke approximately half-maximal fEPSPs once each 30 s ([…]; 100 μs duration). fEPSP slope was measured before and after induction of LTP by linear interpolation from 20 to 80% of maximum negative deflection, and slopes confirmed to be stable to within ±10% for at least 15 min before commencing an experiment. […] The signals were recorded using a Multiclamp 700B amplifier and digitized with a Digidata 1322 (Axon Instruments, USA).

Chain of NR2B (Q13224 27-1484, species assumed, other chains not shown): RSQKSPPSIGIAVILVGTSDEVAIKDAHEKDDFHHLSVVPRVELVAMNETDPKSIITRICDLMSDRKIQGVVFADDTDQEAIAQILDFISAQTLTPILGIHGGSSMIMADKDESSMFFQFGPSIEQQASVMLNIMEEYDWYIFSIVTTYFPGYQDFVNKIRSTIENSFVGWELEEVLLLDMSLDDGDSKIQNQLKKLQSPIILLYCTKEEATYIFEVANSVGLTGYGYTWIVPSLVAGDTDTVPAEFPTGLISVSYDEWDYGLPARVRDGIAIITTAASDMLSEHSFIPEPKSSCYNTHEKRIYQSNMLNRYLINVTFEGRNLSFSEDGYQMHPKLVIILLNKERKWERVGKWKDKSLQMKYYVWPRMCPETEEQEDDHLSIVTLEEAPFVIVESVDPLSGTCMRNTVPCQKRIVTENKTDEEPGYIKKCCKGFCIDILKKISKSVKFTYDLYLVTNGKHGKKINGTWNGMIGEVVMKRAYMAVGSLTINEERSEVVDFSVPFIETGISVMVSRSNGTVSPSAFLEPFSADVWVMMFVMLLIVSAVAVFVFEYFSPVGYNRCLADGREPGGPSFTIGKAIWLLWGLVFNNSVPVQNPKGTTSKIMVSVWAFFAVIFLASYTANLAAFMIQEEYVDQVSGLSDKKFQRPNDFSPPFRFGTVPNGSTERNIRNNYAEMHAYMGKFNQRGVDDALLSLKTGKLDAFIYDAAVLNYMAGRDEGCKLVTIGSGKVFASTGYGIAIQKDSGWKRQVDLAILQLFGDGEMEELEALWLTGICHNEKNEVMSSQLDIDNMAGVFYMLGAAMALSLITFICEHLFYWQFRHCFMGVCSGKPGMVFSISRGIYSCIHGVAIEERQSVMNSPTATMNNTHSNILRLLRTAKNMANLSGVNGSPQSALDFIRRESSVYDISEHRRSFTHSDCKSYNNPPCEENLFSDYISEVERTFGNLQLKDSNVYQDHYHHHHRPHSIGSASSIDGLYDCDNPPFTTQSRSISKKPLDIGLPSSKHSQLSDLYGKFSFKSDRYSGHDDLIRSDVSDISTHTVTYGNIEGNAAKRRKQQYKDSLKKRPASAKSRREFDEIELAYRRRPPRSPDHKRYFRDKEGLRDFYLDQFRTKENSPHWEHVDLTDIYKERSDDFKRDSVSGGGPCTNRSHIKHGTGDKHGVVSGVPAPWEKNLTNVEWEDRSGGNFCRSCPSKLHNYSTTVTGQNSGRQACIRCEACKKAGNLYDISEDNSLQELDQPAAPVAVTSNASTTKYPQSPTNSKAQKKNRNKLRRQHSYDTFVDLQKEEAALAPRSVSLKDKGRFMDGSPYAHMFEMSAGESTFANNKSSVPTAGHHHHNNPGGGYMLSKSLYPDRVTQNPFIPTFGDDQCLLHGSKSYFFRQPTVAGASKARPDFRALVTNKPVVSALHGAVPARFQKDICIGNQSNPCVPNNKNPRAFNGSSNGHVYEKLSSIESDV

Microsomal Stability (% remaining at 60 min) Human [1]: 92%
Plasma Stability (% remaining at 60 min) Human [2]: 81%
Plasma Stability (% remaining at 60 min) Rat [3]: 86%
NR2B A (%) (activity) ([4]; potentiation of [3H]MK-801 binding): 76.3%
NMDAR2B BINDING PROFILE % 1 mM Glycine ([4]; relative to 1 mM glycine): 76.3%
binding to NR2B (in words) ([4]; statement in description): binds
NMDAR2B BINDING PROFILE Conclusion ([4]; wild-type NMDAR2B): WT2B agonist
Compound: C[C@@H](O)[C@@H](C(N)=O)N1C[C@@]2(CCCN2S(C)(=O)=O)C1=O [Compound BB, (2S,3R)-3-hydroxy-2-((S)-5-(methylsulfonyl)-1-oxo-2,5-diazaspiro[3,4]octan-2-yl)butanamide]
analgesic effects (paw withdrawal threshold) [5]: analgesic effects
long-term potentiation after high frequency stimulation [6]: increased long-term potentiation
